Results published in patent US20250228954A1, “Designing Antisense Oligonucleotide Delivery Peptides by Interpretable Machine Learning” (Sarepta Therapeutics, Inc., priority 2020, published 2025).

How the values were obtained:
HeLa 654 cells [1] = assay: HeLa-654 eGFP assay (corrective splicing / exon skipping by PMO IVS2-654); type: cell-based, human; settings: 5 μM, 22 h; for FOLD OVER PMO: eGFP fluorescence of PMO-peptide conjugate relative to unconjugated PMO
Method: With the 36 constructs synthesized, the ability to modulate PMO activity using the modified HeLa cell assay was tested. The HeLa-654 cells were stably transfected to express a nonfluorescent eGFP protein. The eGFP gene is interrupted by a mutant intron from the human β-globin gene (IVS2-654). The insertion alters pre-mRNA splicing to cause retention of a fragment in the mature mRNA that results in a nonfluorescent protein. PMO IVS2-654 base-pairs with the B-globin insertion, modifies mRNA splicing, and thereby leads to expression of fluorescent eGFP.
For treatment, the crude reaction mixture was diluted to 5 μM in media. The concentration of the modular construct was calculated based on the original concentration of the module 1-2 conjugate mixed in the reaction. Using media containing 10% fetal bovine serum (FBS), the cells were treated with each construct for 22 hours, after which the cellular fluorescence was measured by flow cytometry.
From the lists of hundreds of predicted peptide sequences, twenty candidates were selected that varied in length, charge, and predicted activity to synthesize and test. Just as with the PMO-peptide library, the PMO-Mach constructs were first tested for PMO delivery in the HeLa 654 assay at 5 μM in complete media for 22 hours and analyzed by flow cytometry (FIG. 14). Experiments were conducted using three technical triplicates and two or three biological replicates.
(§1) HeLa 654 cells were maintained in MEM supplemented with 10% (v/v) fetal bovine serum (FBS) and 1% (v/v) penicillin-streptomycin at 37° C. and 5% CO2. Eighteen hours prior to treatment, the cells were plated at a density of 5,000 cells per well in a 96-well plate in MEM supplemented with 10% FBS and 1% penicillin-streptomycin. The day of the experiment, the 384 well plate containing the crude reaction mixtures in DMSO was diluted to 100 μM by the addition of 16.8 μL of PBS to the 3.2 μL reaction mixture. Then, each construct was diluted to 5 μM in MEM supplemented with 10% FBS and 1% penicillin-streptomycin. Cells were incubated with each conjugate at a concentration of 5 μM for 22 hours at 37° C. and 5% CO2. Next, the treatment media was aspirated the cells were incubated with Trypsin-EDTA 0.25% for 15 min at 37° C. and 5% CO2, washed 1× with PBS, and resuspended in PBS with 2% FBS and 2 μg/mL propidium iodide. Flow cytometry analysis was carried out on a BD LSRII flow cytometer. Gates were applied to the data to ensure that cells that were highly positive for propidium iodide or had forward/side scatter readings that were sufficiently different from the main cell population were excluded. Each sample was capped at 5,000 gated events.
Analysis was conducted using Graphpad Prism 7. For each sample, the mean fluorescence intensity and the number of gated cells was measured (FIGS. 8 and 9) and the intensity multiplied by the cell number was calculated (FIG. 7).

HeLa 654 cells [2] = assay: Cytotoxicity by gated cell count and propidium iodide staining in flow cytometry; type: cell-based, human; settings: at the concentrations tested in dose-response, 22 h
Source text: The different modules led to several noticeable trends in the level of cellular fluorescence (FIG. 6). When module 2 was DPV6, the overall construct consistently led to high fluorescence, regardless of which peptides were placed in module 3 and 4. However, when either pVEC or TP10 was placed in module 2, minor cellular fluorescence was observed. A gated cell count was used during flow cytometry as an indirect read-out to control for the toxicity of the compounds. Highly toxic compounds led to a reduction in overall cell count and non-viable cells were gated out based upon propidium iodide staining. In this experiment, it was observed that when the module 3 peptide was the nuclear localization sequence KRVK, lower cell counts were consistently observed.
In the same format as described above, HeLa 654 cells were treated with varying concentrations of Mach 2, 3, 4, and 7 for 22 hours and analyzed by flow cytometry.
as §1

Row | Structure (SMILES) | FOLD OVER PMO (HeLa 654 cells [1]) | cytotoxicity as determined by cell count and PI staining (HeLa 654 cells [2]) | PMO delivery / activity, result in words (HeLa 654 cells [1])
1 | CSCC[C@H](NC(=O)[C@H](CCCCN)NC(=O)[C@H](CCCCN)NC(=O)[C@@H]1CCCN1C(=O)[C@H](CCC(N)=O)NC(=O)[C@@H]1CCCN1C(=O)[C@@H](NC(=O)[C@H](CCCCN)NC(=O)[C@H](CCCCN)NC(=O)[C@H](CCCCN)NC(=O)[C@@H]1CCCN1C(=O)[C@H](Cc1c[nH]c2ccccc12)NC(=O)[C@H](CCCNC(=N)N)NC(=O)[C@H](Cc1c[nH]cn1)NC(=O)[C@H](CCCCN)NC(=O)[C@H](CCCCN)NC(=O)[C@H](CCCCN)NC(=O)[C@H](CC(N)=O)NC(=O)[C@H](CCC(N)=O)NC(=O)[C@H](CCCCN)NC(=O)[C@H](CCCCN)NC(=O)CNC(=O)[C@H](CCCCN)NC(=O)[C@H](CCCCN)NC(=O)CCCCn1nnc2c1-c1ccccc1N(C(=O)CCCCC(=O)N1C[C@@H](COP(=O)(N(C)C)N3C[C@@H](COP(=O)(N(C)C)N4C[C@@H](COP(=O)(N(C)C)N5C[C@@H](COP(=O)(N(C)C)N6C[C@@H](COP(=O)(N(C)C)N7C[C@@H](COP(=O)(N(C)C)N8C[C@@H](COP(=O)(N(C)C)N9C[C@@H](COP(=O)(N(C)C)N%10C[C@@H](COP(=O)(N(C)C)N%11C[C@@H](COP(=O)(N(C)C)N%12C[C@@H](COP(=O)(N(C)C)N%13C[C@@H](COP(=O)(N(C)C)N%14C[C@@H](COP(=O)(N(C)C)N%15C[C@@H](COP(=O)(N(C)C)N%16C[C@@H](COP(=O)(N(C)C)N%17C[C@@H](COP(=O)(N(C)C)N%18C[C@@H](COP(=O)(N(C)C)N%19C[C@@H](COP(=O)(N(C)C)N%20CCN(C(=O)OCCOCCOCCO)CC%20)O[C@@H](n%20cnc%21c(=O)[nH]c(N)nc%21%20)C%19)O[C@@H](n%19ccc(N)nc%19=O)C%18)O[C@@H](n%18cc(C)c(=O)[nH]c%18=O)C%17)O[C@@H](n%17cnc%18c(N)ncnc%18%17)C%16)O[C@@H](n%16cc(C)c(=O)[nH]c%16=O)C%15)O[C@@H](n%15cc(C)c(=O)[nH]c%15=O)C%14)O[C@@H](n%14cnc%15c(N)ncnc%15%14)C%13)O[C@@H](n%13ccc(N)nc%13=O)C%12)O[C@@H](n%12ccc(N)nc%12=O)C%11)O[C@@H](n%11cc(C)c(=O)[nH]c%11=O)C%10)O[C@@H](n%10cc(C)c(=O)[nH]c%10=O)C9)O[C@@H](n9cnc%10c(N)ncnc%109)C8)O[C@@H](n8cnc9c(N)ncnc98)C7)O[C@@H](n7ccc(N)nc7=O)C6)O[C@@H](n6ccc(N)nc6=O)C5)O[C@@H](n5ccc(N)nc5=O)C4)O[C@@H](n4cnc5c(N)ncnc54)C3)O[C@@H](n3cnc4c(=O)[nH]c(N)nc43)C1)Cc1ccccc1-2)C(C)C)C(=O)N[C@@H](Cc1ccccc1)C(=O)N[C@@H](CCCCN)C(=O)N[C@@H](CCC(N)=O)C(=O)NCC(=O)N[C@@H](C)C(=O)NCCC(=O)NCCCCCC(=O)N[C@@H](CCCNC(=N)N)C(=O)NCCCCCC(N)=O (some centres unmarked) [MACH 4] | 25 | no cytotoxicity | –
2 | CC[C@H](C)[C@H](NC(=O)[C@H](CC(C)C)NC(=O)[C@H](CCCNC(=N)N)NC(=O)CCCCCNC(=O)[C@H](Cc1ccc(O)cc1)NC(=O)[C@H](CCCCN)NC(=O)CCCCCNC(=O)[C@H](C)NC(=O)[C@H](CO)NC(=O)[C@H](CCCNC(=N)N)NC(=O)[C@H](C)NC(=O)[C@H](CCCCN)NC(=O)[C@H](Cc1c[nH]c2ccccc12)NC(=O)[C@H](CC(C)C)NC(=O)[C@H](Cc1c[nH]c2ccccc12)NC(=O)[C@H](CCCCN)NC(=O)[C@H](CCCCN)NC(=O)[C@H](CCCCN)NC(=O)[C@H](CCC(N)=O)NC(=O)[C@H](CCCCN)NC(=O)[C@H](CO)NC(=O)[C@H](CO)NC(=O)[C@H](CCCCN)NC(=O)[C@H](CCCCN)NC(=O)[C@H](CC(C)C)NC(=O)[C@H](CCCNC(=N)N)NC(=O)[C@H](CCCCN)NC(=O)[C@H](CCCCN)NC(=O)[C@H](CCCCN)NC(=O)[C@H](Cc1c[nH]c2ccccc12)NC(=O)[C@H](CC(C)C)NC(=O)[C@H](C)NC(=O)[C@H](C)NC(=O)[C@H](C)NC(=O)[C@@H]1CCCN1C(=O)[C@@H](NC(=O)[C@H](CCCCN)NC(=O)[C@H](Cc1c[nH]c2ccccc12)NC(=O)[C@H](C)NC(=O)[C@H](CCCNC(=N)N)NC(=O)[C@H](C)NC(=O)[C@H](C)NC(=O)CCNC(=O)[C@H](CCC(N)=O)NC(=O)[C@@H](NC(=O)[C@H](C)NC(=O)CCCCCNC(=O)[C@@H]1CCCN1C(=O)[C@H](Cc1c[nH]cn1)NC(=O)[C@H](CCCCN)NC(=O)CCCCCNC(=O)CCCCn1nnc2c1-c1ccccc1N(C(=O)CCCCC(=O)N1C[C@@H](COP(=O)(N(C)C)N3C[C@@H](COP(=O)(N(C)C)N4C[C@@H](COP(=O)(N(C)C)N5C[C@@H](COP(=O)(N(C)C)N6C[C@@H](COP(=O)(N(C)C)N7C[C@@H](COP(=O)(N(C)C)N8C[C@@H](COP(=O)(N(C)C)N9C[C@@H](COP(=O)(N(C)C)N%10C[C@@H](COP(=O)(N(C)C)N%11C[C@@H](COP(=O)(N(C)C)N%12C[C@@H](COP(=O)(N(C)C)N%13C[C@@H](COP(=O)(N(C)C)N%14C[C@@H](COP(=O)(N(C)C)N%15C[C@@H](COP(=O)(N(C)C)N%16C[C@@H](COP(=O)(N(C)C)N%17C[C@@H](COP(=O)(N(C)C)N%18C[C@@H](COP(=O)(N(C)C)N%19C[C@@H](COP(=O)(N(C)C)N%20CCN(C(=O)OCCOCCOCCO)CC%20)O[C@@H](n%20cnc%21c(=O)[nH]c(N)nc%21%20)C%19)O[C@@H](n%19ccc(N)nc%19=O)C%18)O[C@@H](n%18cc(C)c(=O)[nH]c%18=O)C%17)O[C@@H](n%17cnc%18c(N)ncnc%18%17)C%16)O[C@@H](n%16cc(C)c(=O)[nH]c%16=O)C%15)O[C@@H](n%15cc(C)c(=O)[nH]c%15=O)C%14)O[C@@H](n%14cnc%15c(N)ncnc%15%14)C%13)O[C@@H](n%13ccc(N)nc%13=O)C%12)O[C@@H](n%12ccc(N)nc%12=O)C%11)O[C@@H](n%11cc(C)c(=O)[nH]c%11=O)C%10)O[C@@H](n%10cc(C)c(=O)[nH]c%10=O)C9)O[C@@H](n9cnc%10c(N)ncnc%109)C8)O[C@@H](n8cnc9c(N)ncnc98)C7)O[C@@H](n7ccc(N)nc7=O)C6)O[C@@H](n6ccc(N)nc6=O)C5)O[C@@H](n5ccc(N)nc5=O)C4)O[C@@H](n4cnc5c(N)ncnc54)C3)O[C@@H](n3cnc4c(=O)[nH]c(N)nc43)C1)Cc1ccccc1-2)C(C)C)C(C)C)C(N)=O (some centres unmarked) [MACH 7] | 36 | no cytotoxicity | nearly identical
